These results are taken from ChEMBL document CHEMBL3400005, “Thermodynamic equilibrium solubility measurements in simulated fluids by 96-well plate method in early drug discovery” (Bioorg Med Chem Lett, 2015).

Data set [1] in a line: physchem. Particulars: pH 1.2.
For data set [2] the following is noted: buffer, 4 h.
For data set [3] the following is noted: buffer, 24 h.
For data set [4] the following is noted: buffer, pH 7.4, 4 h.
Data set [5] in a line: physchem. Particulars: pH 1.2. This is another data set of the same source.
A short description of data set [6]: physchem. Particulars: pH 6.8.
Data set [7] is described as follows: physchem. Particulars: pH 6.8. The source holds these as a separate data set.
For data set [8] the following is noted: buffer, pH 7.4, 24 h.
For data set [9] the following is noted: simulated gi fluid, pH 1.2, 24 h.
For data set [10] the following is noted: simulated gi fluid, pH 6.8, 24 h.
The conditions of data set [11]: simulated gi fluid, pH 6.8, 4 h.
The conditions of data set [12]: simulated gi fluid, pH 1.2, 4 h.
Data set [13] is described as follows: physchem.
Data set [14] is described as follows: physchem. Particulars: pH 7.4.
Data set [15] is described as follows: physchem. This is another data set of the same source.
Data set [16] in a line: physchem. The source holds these as a separate data set.
The nature of data set [17]: physchem. Particulars: pH 7.4. The source holds these as a separate data set.

≈ marks a conversion by molar mass, not a printed value.

A word on the solubility (thermodynamic): it is solubility found after equilibrating the solid with the medium. As for `CC(=O)Nc1ccc(O)cc1` [ACETAMINOPHEN], the solubility (thermodynamic) at 4 h in “physchem [1]” (simulated gastric fluid) is 1000 µM (≈ 151 µg/mL); in “physchem [6]” (simulated intestinal fluid) it was 3.31 µM (≈ 0.501 µg/mL). In addition, the “-log(solubility)” value is recorded as 2.7 in data set [2], 2.87 in data set [3], 3 in data set [4] and 2.93 in data set [8]. Further, the figures for the solubility (thermodynamic) at 24 h in the data set “physchem [5]” (simulated gastric fluid) and in “physchem [7]” (simulated intestinal fluid) were 1230 µM (≈ 186 µg/mL) and 3.31 µM (≈ 0.501 µg/mL), respectively.

A word on the solubility: it is the dissolved amount per volume that the medium holds. As for `CCCC1O[C@@H]2C[C@H]3[C@@H]4CCC5=CC(=O)C=C[C@]5(C)[C@H]4[C@@H](O)C[C@]3(C)[C@]2(C(=O)CO)O1` (some centres undefined) [BUDESONIDE], the “-log(solubility)” value is on record as 5.33 and the solubility stood at 28 µg/mL (≈ 65 µM). Further, the “-log(solubility)” value in data set [9] is given as 5.07. Besides, the “-log(solubility)” value in data set [2] was 5.03. The “-log(solubility)” value in data set [10] was 5.24. In addition, the “-log(solubility)” value in data set [3] was determined as 5.23. Moreover, the “-log(solubility)” value in data set [11] is reported as 5.03. The “-log(solubility)” value in [4] is recorded as 5.03. The “-log(solubility)” value in data set [12] is recorded as 5.03. Further, in [8], the “-log(solubility)” value worked out at 5.27.

On to `NC(=O)N1c2ccccc2C=Cc2ccccc21` [CARBAMAZEPINE], for which the “-log(solubility)” value is 4.29 and the solubility was 170 µg/mL (≈ 720 µM). In addition, in data set [9], the “-log(solubility)” value is 4.34. In addition, the “-log(solubility)” value in data set [2] turned out to be 4.07. The “-log(solubility)” value in [10] is given as 4.85. Also, the “-log(solubility)” value in [3] came to 4.4. Besides, the “-log(solubility)” value in [11] is 4.28. The “-log(solubility)” value in data set [4] was determined as 4.47. Moreover, the “-log(solubility)” value in data set [12] is 4.07. Further, in data set [8], the “-log(solubility)” value worked out at 4.48.

For the compound `COc1cc2c(c(OC)c1OC)-c1ccc(OC)c(=O)cc1[C@@H](NC(C)=O)CC2` [COLCHICINE], the solubility (thermodynamic) at 4 h in the data set “physchem [1]” (simulated gastric fluid) was 50.1 µM (≈ 20 µg/mL); in “physchem [6]” (simulated intestinal fluid) it was 200 µM (≈ 79.7 µg/mL). The results for the “-log(solubility)” value in data set [2] and in data set [4] were 3.43 and 3.7, respectively.

Take `COc1cc(/C=C/C(=O)CC(=O)/C=C/c2ccc(O)c(OC)c2)ccc1O` [CURCUMIN]: the “-log(solubility)” value turned out to be 6.78. In “physchem [1]” (simulated gastric fluid), this compound had a solubility (thermodynamic) at 4 h of 1.35 µM (≈ 0.497 µg/mL). The compound also had a solubility (thermodynamic) at 4 h in the data set “physchem [13]” (water) of 1.35 µM (≈ 0.497 µg/mL). Also, in “physchem [14]” (PBS), the solubility (thermodynamic) at 4 h was 1.35 µM (≈ 0.497 µg/mL). Also, the solubility (thermodynamic) at 4 h in “physchem [6]” (simulated intestinal fluid) was 1.35 µM (≈ 0.497 µg/mL).

Turning to `CC1(C)[C@@H](O)CC[C@]2(C)[C@H]3C(=O)C=C4[C@@H]5C[C@@](C)(C(=O)O)CC[C@]5(C)CC[C@@]4(C)[C@]3(C)CC[C@@H]12` [ENOXOLONE], the solubility (thermodynamic) at 4 h in “physchem [1]” (simulated gastric fluid) and in “physchem [6]” (simulated intestinal fluid) was 1.07 µM (≈ 0.504 µg/mL) each time. Moreover, the “-log(solubility)” value was found to be 5.97 in data set [2] and 5.67 in data set [4].

On to `OC(Cn1cncn1)(Cn1cncn1)c1ccc(F)cc1F` [FLUCONAZOLE], for which the thermodynamic solubility at 4 h was 1.62 µM (≈ 0.497 µg/mL) in the data set “physchem [1]” (simulated gastric fluid), 0.324 µM (≈ 0.0991 µg/mL) in the data set “physchem [13]” (water), 0.324 µM (≈ 0.0991 µg/mL) in “physchem [14]” (PBS) and 0.324 µM (≈ 0.0991 µg/mL) in the data set “physchem [6]” (simulated intestinal fluid). Moreover, the solubility (thermodynamic) at 24 h was 0.537 µM (≈ 0.164 µg/mL) in “physchem [15]” (water), 0.851 µM (≈ 0.261 µg/mL) in the data set “physchem [5]” (simulated gastric fluid), 0.891 µM (≈ 0.273 µg/mL) in the data set “physchem [7]” (simulated intestinal fluid) and 0.468 µM (≈ 0.143 µg/mL) in “physchem [17]” (PBS). Besides, the solubility (thermodynamic) in “physchem [16]” is 0.331 µM (≈ 0.101 µg/mL).

On to `CCC(=O)O[C@]1(C(=O)SCF)[C@H](C)C[C@H]2[C@@H]3C[C@H](F)C4=CC(=O)C=C[C@]4(C)[C@@]3(F)[C@@H](O)C[C@@]21C` [FLUTICASONE PROPIONATE], for which the solubility (thermodynamic) at 4 h in the data set “physchem [1]” (simulated gastric fluid) was 1 µM (≈ 0.501 µg/mL); in “physchem [13]” (water), 0.2 µM (≈ 0.0999 µg/mL); in the data set “physchem [14]” (PBS), 0.2 µM (≈ 0.0999 µg/mL); in “physchem [6]” (simulated intestinal fluid), 1 µM (≈ 0.501 µg/mL). Also, the thermodynamic solubility at 24 h in “physchem [15]” (water) was 0.0195 µM (≈ 0.00976 µg/mL); in the data set “physchem [5]” (simulated gastric fluid), 0.2 µM (≈ 0.0999 µg/mL); in the data set “physchem [7]” (simulated intestinal fluid) it was 0.407 µM (≈ 0.204 µg/mL); in the data set “physchem [17]” (PBS), 0.01 µM (≈ 0.00501 µg/mL). Moreover, in “physchem [16]”, the solubility (thermodynamic) was 0.102 µM (≈ 0.0512 µg/mL).

`COc1c2occc2c(OC)c2c(=O)cc(C)oc12` [KHELLIN]: the thermodynamic solubility at 4 h in “physchem [1]” (simulated gastric fluid) was 30.9 µM (≈ 8.04 µg/mL); in “physchem [13]” (water) it was 77.6 µM (≈ 20.2 µg/mL); in “physchem [14]” (PBS), 77.6 µM (≈ 20.2 µg/mL); in the data set “physchem [6]” (simulated intestinal fluid), 30.9 µM (≈ 8.04 µg/mL). The solubility (thermodynamic) at 24 h was 100 µM (≈ 26 µg/mL) in the data set “physchem [15]” (water), 97.7 µM (≈ 25.4 µg/mL) in the data set “physchem [5]” (simulated gastric fluid), 58.9 µM (≈ 15.3 µg/mL) in the data set “physchem [7]” (simulated intestinal fluid) and 72.4 µM (≈ 18.9 µg/mL) in “physchem [17]” (PBS). The compound further gave a solubility (thermodynamic) in “physchem [16]” of 97.7 µM (≈ 25.4 µg/mL).

Turning to `Cc1cnc(NC(=O)C2=C(O)c3ccccc3S(=O)(=O)N2C)s1` [MELOXICAM], the solubility (thermodynamic) at 4 h in “physchem [1]” (simulated gi fluid) was 1.41 µM (≈ 0.496 µg/mL); in “physchem [13]” (buffer), 11.5 µM (≈ 4.03 µg/mL); in the data set “physchem [14]” (buffer) it was 35.5 µM (≈ 12.5 µg/mL); in “physchem [6]” (simulated gi fluid), 22.9 µM (≈ 8.05 µg/mL). The thermodynamic solubility at 24 h was 11 µM (≈ 3.85 µg/mL) in “physchem [15]” (buffer), 0.0407 µM (≈ 0.0143 µg/mL) in “physchem [5]” (simulated gi fluid), 28.8 µM (≈ 10.1 µg/mL) in the data set “physchem [7]” (simulated gi fluid) and 21.9 µM (≈ 7.69 µg/mL) in the data set “physchem [17]” (buffer). For the same compound, the solubility (thermodynamic) in the data set “physchem [16]” is 2.29 µM (≈ 0.805 µg/mL).

Consider `COCCOC(=O)C1=C(C)NC(C)=C(C(=O)OC(C)C)C1c1cccc([N+](=O)[O-])c1` (centres undefined) [NIMODIPINE], for which the solubility (thermodynamic) at 4 h is 9.55 µM (≈ 4 µg/mL) in the data set “physchem [1]” (simulated gastric fluid), 4.79 µM (≈ 2 µg/mL) in the data set “physchem [13]” (water) and 9.55 µM (≈ 4 µg/mL) in “physchem [6]” (simulated intestinal fluid). Also, the solubility (thermodynamic) at 24 h was 4.07 µM (≈ 1.7 µg/mL) in the data set “physchem [15]” (water), 10.7 µM (≈ 4.48 µg/mL) in the data set “physchem [5]” (simulated gastric fluid), 10 µM (≈ 4.18 µg/mL) in the data set “physchem [7]” (simulated intestinal fluid) and 0.398 µM (≈ 0.167 µg/mL) in “physchem [17]” (PBS). This compound showed a solubility (thermodynamic) in the data set “physchem [16]” of 5.75 µM (≈ 2.41 µg/mL). The “-log(solubility)” value in [4] came out at 6.62.

For `CO[C@H]1/C=C/O[C@@]2(C)Oc3c(C)c(O)c4c(O)c(c(/C=N/N5CCN(C)CC5)c(O)c4c3C2=O)NC(=O)/C(C)=C\C=C\[C@H](C)[C@H](O)[C@@H](C)[C@@H](O)[C@@H](C)[C@H](OC(C)=O)[C@@H]1C` [RIFAMPIN], the thermodynamic solubility at 4 h in the data set “physchem [1]” (simulated gastric fluid) and in the data set “physchem [6]” (simulated intestinal fluid) was 97.7 µM (≈ 80.4 µg/mL) in each case. Also, the “-log(solubility)” value in data set [2] stood at 4.31; in data set [3] it was 4.21; in data set [4], 4.01; in data set [8] it was 4.14. Moreover, the thermodynamic solubility at 24 h was 95.5 µM (≈ 78.6 µg/mL) in “physchem [5]” (simulated gastric fluid) and 72.4 µM (≈ 59.6 µg/mL) in the data set “physchem [7]” (simulated intestinal fluid).
